In ChEMBL document CHEMBL3217667, “Extended side chain analogues of 8-aminoquinolines: Synthesis and evaluation of antiprotozoal, antimicrobial, -hematin inhibition, and cytotoxic activities” (Medchemcomm, 2011):
Activity calls are given as the source filed them. No cut-off for these calls is given here.

Assays:
Plasmodium falciparum [1] = assay: Antimalarial activity against chloroquine-resistant Plasmodium falciparum W2 by lactate dehydrogenase assay; assay type: functional, organism-based
[2] = Selectivity index, ratio of IC50 for African green monkey Vero cells to IC50 for chloroquine-resistant Plasmodium falciparum W2; assay type: toxicity, cell-based; conditions: read-out: Ratio IC50
Pichia kudriavzevii = assay: Antifungal activity against Candida krusei by broth microdilution assay; assay type: functional, organism-based
Leishmania donovani = assay: Antileishmanial activity against Leishmania donovani promastigotes by Alamar Blue assay; assay type: functional, organism-based
KB = assay: Cytotoxicity against human KB cells by neutral red uptake assay; assay type: cell-based
Nakaseomyces glabratus = assay: Antifungal activity against Candida glabrata by broth microdilution assay; assay type: functional, organism-based
BT-549 = assay: Cytotoxicity against human BT549 cells by neutral red uptake assay; assay type: cell-based
Staphylococcus aureus [3] = assay: Antibacterial activity against methicillin-resistant Staphylococcus aureus up to 20 ug/ml; assay type: functional, organism-based
Cryptococcus neoformans [4] = assay: Antifungal activity against Cryptococcus neoformans up to 20 ug/ml by broth microdilution assay; assay type: functional, organism-based
Plasmodium berghei [5] = assay: Antimalarial activity against Plasmodium berghei infected in mouse assessed as reduction in parasitemia at 50 mg/kg/day, po for 4 days measured up to day 60 relative to control; assay type: functional; parameters: scale not given: the % may be the effect or the level left
Plasmodium berghei [6] = assay: Antimalarial activity against Plasmodium berghei infected in mouse assessed as reduction in parasitemia at 100 mg/kg/day, po for 4 days measured up to day 14; assay type: functional; parameters: scale not given: the % may be the effect or the level left
SK-OV-3 = assay: Cytotoxicity against human SKOV3 cells by neutral red uptake assay; assay type: cell-based
[7] = test system: Mycobacterium intracellulare; assay: Antibacterial activity against Mycobacterium intracellulare up to 20 ug/ml; assay type: functional, organism-based
Aspergillus fumigatus = assay: Antifungal activity against Aspergillus fumigatus by broth microdilution assay; assay type: functional, organism-based
[8] = Inhibition of beta-hematin formation after 16 hrs; assay type: physicochemical
Candida albicans = assay: Antifungal activity against Candida albicans by broth microdilution assay; assay type: functional, organism-based
LLC-PK1 = assay: Cytotoxicity against pig LLC-PK1 cells by neutral red uptake assay; assay type: cell-based; conditions: Sus scrofa
Vero = assay: Cytotoxicity against African green monkey Vero cells by neutral red uptake assay; assay type: cell-based; conditions: Chlorocebus sabaeus
SK-MEL = assay: Cytotoxicity against human SK-MEL cells by neutral red uptake assay; assay type: cell-based
Plasmodium berghei [9] = assay: Antimalarial activity against Plasmodium berghei infected in mouse assessed as reduction in parasitemia at 25 mg/kg/day, po for 4 days measured up to day 60 relative to control; assay type: functional; parameters: scale not given: the % may be the effect or the level left
Plasmodium falciparum [10] = assay: Antimalarial activity against chloroquine-sensitive Plasmodium falciparum D6 by lactate dehydrogenase assay; assay type: functional, organism-based
Plasmodium berghei [11] = assay: Antimalarial activity against Plasmodium berghei infected in mouse assessed as reduction in parasitemia at 10 mg/kg/day, po for 4 days measured up to day 7; assay type: functional, organism-based
Plasmodium berghei [12] = assay: Antimalarial activity against Plasmodium berghei infected in mouse assessed as reduction in parasitemia at 100 mg/kg/day, po for 4 days measured up to day 60 relative to control; assay type: functional; parameters: scale not given: the % may be the effect or the level left
Pseudomonas aeruginosa = assay: Antibacterial activity against Pseudomonas aeruginosa; assay type: functional, organism-based
Escherichia coli = assay: Antibacterial activity against Escherichia coli; assay type: functional, organism-based
[13] = Selectivity index, ratio of IC50 for African green monkey Vero cells to IC50 for chloroquine-sensitive Plasmodium falciparum D6; assay type: toxicity, cell-based; conditions: read-out: Ratio IC50
Staphylococcus aureus [14] = assay: Antibacterial activity against methicillin-resistant Staphylococcus aureus; assay type: functional, organism-based
Cryptococcus neoformans [15] = assay: Antifungal activity against Cryptococcus neoformans by broth microdilution assay; assay type: functional, organism-based
[16] = test system: Mycobacterium intracellulare; assay: Antibacterial activity against Mycobacterium intracellulare; assay type: functional, organism-based
Staphylococcus aureus [17] = assay: Antibacterial activity against Staphylococcus aureus; assay type: functional, organism-based
[18] = Plasmodium falciparum, W2, read-out: IC50
[19] = Plasmodium falciparum, D6, read-out: IC50

SMILES | IC50 (Plasmodium falciparum [1]; [18]) [µg/mL] | selectivity ratio [2] | Activity (Pichia kudriavzevii) | IC50 (Leishmania donovani) [µg/mL] | IC90 (Leishmania donovani) [µg/mL] | IC50 (KB) [µg/mL] | Activity (Nakaseomyces glabratus) | IC50 (BT-549) [µg/mL] | Activity (Plasmodium berghei [5]) [%] | Activity (Plasmodium berghei [6]) | IC50 (SK-OV-3) [µg/mL] | Activity (Aspergillus fumigatus) | IC50 [8] [µM] | Activity (Candida albicans) | IC50 (LLC-PK1) [µg/mL] | IC50 (Vero) [µg/mL] | IC50 (SK-MEL) [µg/mL] | Activity (Plasmodium berghei [9]) [%] | Activity (Pseudomonas aeruginosa) | Activity (Escherichia coli) | also measured
COc1cc(NC(C)CCCNC(C)CCCNC(C)CCCN)c2ncccc2c1.Cl (stereo not drawn) | 1.5 | > 15.8 | inactive | 4.2 | 40 | > 23.8 | inactive | > 23.8 | 100 | 100% | > 23.8 | inactive | 75 | inactive | > 23.8 | > 23.8 | > 23.8 | 100 | inactive | inactive | Activity (Staphylococcus aureus [3]): inactive; Activity (Cryptococcus neoformans [4]): inactive; Activity [7]: inactive; IC50 (Plasmodium falciparum [10]; [19]): 2.6 µg/mL; Activity (Plasmodium berghei [11]): Active; Activity (Plasmodium berghei [12]): 100%; selectivity ratio [13]: > 9.1
COc1cc(NC(C)CCCNC(C)CCCNC(C)CCCNC(C)CCCN)c2ncccc2c1.Cl (stereo not drawn) | 1.3 | > 18.3 | inactive | 5 | 40 | > 23.8 | inactive | > 23.8 | 100 | 100% | > 23.8 | inactive | 75 | inactive | > 23.8 | > 23.8 | > 23.8 | 100 | inactive | inactive | Activity (Staphylococcus aureus [3]): inactive; Activity (Cryptococcus neoformans [4]): inactive; Activity [7]: inactive; IC50 (Plasmodium falciparum [10]; [19]): 2.3 µg/mL; Activity (Plasmodium berghei [11]): Active; Activity (Plasmodium berghei [12]): 100%; selectivity ratio [13]: > 10.3
COc1cc(NC(C)CCCNC(C)CCCNC(C)CCCNC(C)CCCN)c2nc(C(C)(C)C)ccc2c1.Cl (stereo not drawn) | 0.56 | > 42.5 | inactive | 1.6 | 7.3 | > 23.8 | inactive | > 23.8 | 100 | 100% | > 23.8 | inactive | 10.2 | inactive | > 23.8 | > 23.8 | > 23.8 | 100 | inactive | inactive | IC50 (Staphylococcus aureus [14]): 10 µg/mL; MBC (Staphylococcus aureus [14]): 20 µg/mL; MIC (Staphylococcus aureus [14]): 20 µg/mL; IC50 (Cryptococcus neoformans [15]): 10 µg/mL; MFC (Cryptococcus neoformans [15]): 20 µg/mL; MIC (Cryptococcus neoformans [15]): 20 µg/mL; IC50 (Plasmodium falciparum [10]; [19]): 0.7 µg/mL; IC50 [16]: 15 µg/mL; MBC [16]: 20 µg/mL; MIC [16]: 20 µg/mL; Activity (Plasmodium berghei [11]): Active; Activity (Plasmodium berghei [12]): 100%; selectivity ratio [13]: > 34
COc1cc(NC(C)CCCNC(C)CCCN)c2nc(C(C)(C)C)ccc2c1.Cl (stereo not drawn) | 0.12 | > 198 | inactive | 2.8 | 7.2 | > 23.8 | inactive | > 23.8 | 100 | 100% | > 23.8 | inactive | 7.5 | inactive | > 23.8 | > 23.8 | > 23.8 | 100 | inactive | inactive | IC50 (Staphylococcus aureus [14]): 6.5 µg/mL; MBC (Staphylococcus aureus [14]): 20 µg/mL; MIC (Staphylococcus aureus [14]): 10 µg/mL; IC50 (Cryptococcus neoformans [15]): 10 µg/mL; MFC (Cryptococcus neoformans [15]): 20 µg/mL; MIC (Cryptococcus neoformans [15]): 20 µg/mL; Activity [7]: inactive; IC50 (Plasmodium falciparum [10]; [19]): 0.19 µg/mL; Activity (Plasmodium berghei [11]): Active; Activity (Plasmodium berghei [12]): 100%; selectivity ratio [13]: > 125
COc1cc(NC(C)CCCNC(C)CCCNC(C)CCCN)c2nc(C(C)(C)C)ccc2c1.Cl (stereo not drawn) |  |  | inactive | 1.6 | 4 | > 23.8 | inactive | > 23.8 | 100 | 100% | > 23.8 | inactive | > 1000 | inactive | > 23.8 | > 23.8 | > 23.8 | 100 | inactive | inactive | IC50 (Plasmodium falciparum [1]): Not Active; IC50 (Cryptococcus neoformans [15]): 7.5 µg/mL; MFC (Cryptococcus neoformans [15]): 20 µg/mL; MIC (Cryptococcus neoformans [15]): 20 µg/mL; Activity (Staphylococcus aureus [3]): inactive; IC50 (Plasmodium falciparum [10]): Not Active; IC50 [16]: 9 µg/mL; MBC [16]: 20 µg/mL; MIC [16]: 20 µg/mL; Activity (Plasmodium berghei [11]): Active; Activity (Plasmodium berghei [12]): 100%
CCCCOc1c(OC)cc(NC(C)CCCNC(C)CCCN)c2nccc(CC)c12.Cl (stereo not drawn) | 0.37 | > 64.2 | inactive | 3.5 | 7 | > 23.8 | inactive | > 23.8 |  | inactive | > 23.8 | inactive | 10.2 | inactive | > 23.8 | > 23.8 | > 23.8 |  | inactive | inactive | IC50 (Staphylococcus aureus [14]): 12.5 µg/mL; MBC (Staphylococcus aureus [14]): 20 µg/mL; MIC (Staphylococcus aureus [14]): 20 µg/mL; IC50 (Staphylococcus aureus [17]): 13.7 µg/mL; MBC (Staphylococcus aureus [17]): 20 µg/mL; MIC (Staphylococcus aureus [17]): 20 µg/mL; IC50 (Cryptococcus neoformans [15]): 7.9 µg/mL; MIC (Cryptococcus neoformans [15]): 20 µg/mL; Activity (Cryptococcus neoformans [4]): inactive; Activity [7]: inactive; IC50 (Plasmodium falciparum [10]; [19]): 0.6 µg/mL; IC50 [16]: > 20 µg/mL; selectivity ratio [13]: > 39.6
